# ± gives the standard deviation of the averaged measurements.
# Columns and labels:
# S462 [1] = experiment: drug sensitivity score (DSS, CellTiter-Glo viability, 72 h) (DSS (dimensionless)); higher = more sensitive; extreme values may be limits of the assay
# How it was run: (§1)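 For this screen, 384-well plates were preprinted with each compound at five concentrations in 10-fold steps and seeded with MPNST cell lines or primary human Schwann cells at 750–1000 cells per well. Incubation lasted 72 h at 37 °C, 5% CO2, and CellTiter-Glo ATP luminescence, scaled between vehicle and positive-control wells and averaged over duplicates where available, served as viability. Logistic fits with four parameters were applied. Relative IC50 (censored at the top concentration) and drug sensitivity score derive from these fits, and percent inhibition is at the top concentration.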
# YST-1 [2] = experiment: as above
# How it was run: as §1
# [3] = system: HSC1 (primary human Schwann cells); experiment: as above
# How it was run: as §1
# [4] = system: HSC2 (primary human Schwann cells); experiment: as above
# How it was run: as §1
# ST8814 [5] = experiment: as above
# How it was run: as §1
# HS-PSS [6] = experiment: as above
# How it was run: as §1
# HS-Sch-2 [7] = experiment: as above
# How it was run: as §1
# STS26T [8] = experiment: as above
# How it was run: as §1
# S1507-2 [9] = experiment: as above
# How it was run: as §1
# [10] = system: HSC1 (primary human Schwann cells); experiment: drug sensitivity score (DSS, CellTox-Green cytotoxicity, 72 h) (DSS (dimensionless)); higher = more cytotoxic; extreme values may be limits of the assay
# How it was run: (§2)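 MPNST cell lines and primary human Schwann cells were grown for 72 h at 37 °C in 384-well plates containing five 10-fold compound dilutions. CellTox-Green, added before seeding at a final 1:1000 dilution, gave fluorescence from DNA released by disrupted cells, and signals were scaled to vehicle and positive-control wells. Curves were fitted with a four-parameter logistic model. Drug sensitivity score and relative IC50 come from these fits, with IC50 censored at the top concentration.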
# [11] = system: HSC2 (primary human Schwann cells); experiment: as above
# How it was run: as §2
# ST8814 [12] = experiment: as above
# How it was run: as §2
# HS-PSS [13] = experiment: as above
# How it was run: as §2
# STS26T [14] = experiment: as above
# How it was run: as §2
# S1507-2 [15] = experiment: as above
# How it was run: as §2
# S462 [16] = experiment: % inhibition of CellTiter-Glo viability at highest tested concentration (72 h), relative to DMSO and benzethonium chloride controls; higher = more inhibition
# How it was run: as §1
# YST-1 [17] = experiment: as above
# How it was run: as §1
# [18] = system: HSC1 (primary human Schwann cells); experiment: as above
# How it was run: as §1
# [19] = system: HSC2 (primary human Schwann cells); experiment: as above
# How it was run: as §1
# ST8814 [20] = experiment: as above
# How it was run: as §1
# HS-PSS [21] = experiment: as above
# How it was run: as §1
# HS-Sch-2 [22] = experiment: as above
# How it was run: as §1
# STS26T [23] = experiment: as above
# How it was run: as §1
# S1507-2 [24] = experiment: as above
# How it was run: as §1
Structure (SMILES),drug sensitivity score (S462 [1]),drug sensitivity score (YST-1 [2]),drug sensitivity score [3],drug sensitivity score [4],drug sensitivity score (ST8814 [5]),drug sensitivity score (HS-PSS [6]),drug sensitivity score (HS-Sch-2 [7]),drug sensitivity score (STS26T [8]),drug sensitivity score (S1507-2 [9]),drug sensitivity score [10],drug sensitivity score [11],drug sensitivity score (ST8814 [12]),drug sensitivity score (HS-PSS [13]),drug sensitivity score (STS26T [14]),drug sensitivity score (S1507-2 [15]),% inhibition (S462 [16]),% inhibition (YST-1 [17]),% inhibition [18],% inhibition [19],% inhibition (ST8814 [20]),% inhibition (HS-PSS [21]),% inhibition (HS-Sch-2 [22]),% inhibition (STS26T [23]),% inhibition (S1507-2 [24])
Nc1ncnc2c1c(COc1cccc(Cl)c1)nn2C1CCOCC1 (max concentration tested 10000 nM),0,0,0.203,0,0,0,0.64,0.587,0.0549 ± 0.078,0,0,0,0,0,0.494 ± 0.64,-3.41 ± 5.9%,9.51%,11.5%,-5.42%,5.84%,7.3%,12.5%,18.3%,9.42 ± 7.2%
Nc1ccccc1NC(=O)c1ccc(CNC(=O)OCc2cccnc2)cc1 [Entinostat] (max concentration tested 10000 nM),9.84 ± 0.75,10.3,5.09,4.87,4.2,2.31,4.13,4.35,4.79 ± 0.3,0,0,2.69,0.63,0.625,2.98 ± 1.3,105.3 ± 0.38%,97.7%,71.2%,73%,87.7%,52%,79.7%,69.3%,74.9 ± 7.7%
CN(C)C/C=C/C(=O)Nc1cc2c(Nc3ccc(F)c(Cl)c3)ncnc2cc1O[C@H]1CCOC1 [Afatinib] (max concentration tested 1000 nM),0,0,0,0,0,2.49,1.58,0,1.88 ± 2.7,0,0,0,0,0,0,2.97 ± 6.7%,3.62%,8.81%,3.38%,3.12%,29.9%,21.2%,12.7%,11.6 ± 4.3%
Cc1cn(-c2cc(NC(=O)c3ccc(C)c(Nc4nccc(-c5cccnc5)n4)c3)cc(C(F)(F)F)c2)cn1 [Nilotinib] (max concentration tested 10000 nM),0,1.13,0,0,0,1.65,3.88,0,0,0,0.117,0,0,0,0,-3.63 ± 4.4%,20.6%,0.687%,2.6%,-12.2%,23.5%,15.4%,-1.55%,2.99 ± 0.13%
CCN1CCN(c2ccc(Nc3cc(N(C)C(=O)Nc4c(Cl)c(OC)cc(OC)c4Cl)ncn3)cc2)CC1 [NVP-BGJ398] (max concentration tested 1000 nM),0,0,0,0,0.135,0,0,0,0.00445 ± 0.0063,0,0,0,0,0,0.143 ± 0.2,0.872 ± 0.61%,2.47%,4.11%,5.81%,14.3%,9.97%,0.34%,-2.71%,6.59 ± 6.9%
Cc1cc(C(C)Nc2ccccc2)c2nc(N3CCOCC3)cc(=O)n2c1 (configuration not stated) [TGX-221] (max concentration tested 10000 nM),0.122 ± 0.17,0.99,0.168,0,1.34,0,0.19,4.31,3.32 ± 0.24,0,0,0,0,0.376,0,7.98 ± 6.7%,26.6%,16.5%,6.57%,21.4%,-2.49%,12.3%,41.7%,28.4 ± 7.1%
CNC(=O)c1cc(Oc2ccc(NC(=O)Nc3ccc(Cl)c(C(F)(F)F)c3)c(F)c2)ccn1 [Regorafenib] (max concentration tested 10000 nM),7.19 ± 0.46,6.49,4.61,6.19,7.57,1.9,4.17,4.35,2.21 ± 1.2,0,0,1.04,0,0.529,0,80.9 ± 5.1%,73%,73.8%,78.6%,74.2%,43%,84.1%,49.9%,33.7 ± 17%
C[C@]12C=CC(=O)C=C1CC[C@@H]1[C@@H]2C(=O)C[C@@]2(C)[C@H]1CC[C@]2(O)C(=O)CO [Prednisone] (max concentration tested 10000 nM),0,0,0,0,0,0,0.07,0,0,0,0,0,0,0,0,-0.361 ± 2%,-5.67%,-0.144%,2.63%,-2.07%,3.03%,12.9%,4.83%,0.647 ± 14%
C=CC(=O)Nc1cc2c(Nc3ccc(F)c(Cl)c3)ncnc2cc1OCCCN1CCOCC1 [Canertinib] (max concentration tested 10000 nM),6.03 ± 1,5.36,8.87,7.63,8.06,6.16,6.37,7.19,7.98 ± 0.98,7.58,8,4.72,3.38,4.76,5.1 ± 0.58,96.1 ± 0.97%,96.3%,96.6%,96.2%,96.3%,88.7%,94.2%,96.5%,87.9 ± 0.97%
CNCc1ccc(-c2[nH]c3cc(F)cc4c3c2CCNC4=O)cc1 [Rucaparib] (max concentration tested 10000 nM),2.11 ± 0.82,8.59,0,0,0,2.72,1.1,0,0,0,0,0,0,0,3.1 ± 4.4,27.7 ± 9%,60.9%,4.91%,8.78%,4.21%,30.1%,22.2%,4.71%,-0.362 ± 7.1%
O=C1CCC(N2C(=O)c3ccccc3C2=O)C(=O)N1 (configuration not stated) [Thalidomide] (max concentration tested 10000 nM),0,0,0,0,0.0095,0,0.45,0,0.783 ± 1.1,0,0,0,0,0,0,-8.98 ± 4.2%,2.49%,1.74%,8.31%,10.4%,8.04%,12.4%,2.86%,13 ± 12%
COc1cc([C@@H]2c3cc4c(cc3[C@@H](O[C@@H]3O[C@@H]5CO[C@@H](C)O[C@H]5[C@H](O)[C@H]3O)[C@H]3COC(=O)[C@H]23)OCO4)cc(OC)c1O [Etoposide] (max concentration tested 10000 nM),11.55 ± 0.037,14.5,7.17,11.2,5.79,3.08,8.86,7.33,5.59 ± 0.81,2.21,3.62,3.52,0,5.16,1.82 ± 2.4,90.4 ± 2.4%,73.5%,57.3%,63.6%,70.7%,33%,79.1%,68%,59.8 ± 1%
CC(C)N(CCCNC(=O)Nc1ccc(C(C)(C)C)cc1)C[C@H]1O[C@@H](n2cc(Br)c3c(N)ncnc32)[C@H](O)[C@@H]1O [SGC0946] (max concentration tested 10000 nM),0.582 ± 0.82,1.03,0.65,0.163,2.58,6.51,3.88,0,3.16 ± 1.4,0,0,3.21,2.32,0,0.24 ± 0.046,19.2 ± 8.9%,29%,23.1%,16.3%,52.9%,79.5%,67.2%,4.04%,42.7 ± 1.2%
